Results published in patent US9624228B2, “Inhibitors of ERK and methods of use” (KURA ONCOLOGY, INC., priority 2013, dated 2017).

Tested on: phospho-RSK1 (Thr359/Ser363) in A375 (Braf V600E) cells
Assay: Phospho-p90 RSK ELISA using A375 (Braf V600E) cells
Assay type: cell-based
Conditions: Homo sapiens, A-375, 2 hours compound treatment, read-out: Cellular Phospho-p90RSK IC50
Experimental: In preparation for the assay, an ELISA plate with the pre-coated goat anti-mouse antibody (Thermo Scientific) was treated with a mouse anti-human RSK1 antibody (monoclonal, Invitrogen) at 1:800 dilution (150 ng/well) in PBS, and the plate was placed on a plate shaker at 4° C. overnight. […] After two hours of the compound treatment, the supernatant was removed from the cell plate, and cells were lysed in 100 μl per well of cell lysis buffer (Cell Signaling Technologies) containing phosphatase and protease inhibitors (Cell Signaling Technologies) on a plate shaker at 4° C. for 20 minutes. The ELISA plate was washed four times with ELISA wash buffer (Thermo Scientific) prior to addition of 100 μL cell lysate. The lysate was incubated on the ELISA plate with gentle shaking at room temperature for 2 hours. The contents of the wells were removed, and the ELISA plate was washed four times with wash buffer, and incubated with 100 μL per well of anti-phospho-RSK1 (Thr359/Ser363) rabbit monoclonal antibody (Millipore) at dilution of 1:1000 in StartingBlock buffer (Thermo Scientific) on a plate shaker at room temperature for 1 hour. The contents of the wells were removed, the ELISA plate was washed four times with wash buffer, and was incubated with 100 μL per well of goat anti-rabbit HRP (Thermo Scientific) at dilution of 1:3000 in StartingBlock buffer (Thermo Scientific) on a plate shaker at room temperature for 1 hour. The contents of the wells were removed, the ELISA plate was washed four times with wash buffer, and then incubated with 100 μL per well of TMB substrate solution (Thermo Scientific) on a plate shaker at room temperature for 20 minutes. Finally, 100 μL of TMB stop solution (Thermo Scientific) was added to each well and the absorbance is measured at 450 nm on a Tecan plate reader.

First: O=C1Nc2cc3[nH]nc(NC4CCOCC4)c3cc2CN1[C@@H]1CN(CC(F)(F)F)C[C@H]1c1ccccc1 [Compound 361]
Second: Cc1cc(-c2n[nH]c3cc4c(cc23)CN([C@@H]2CCCN(C(=O)c3cccc(Cl)c3)C2)C(=O)N4)ccn1 [Compound 152]
The IC50 of the first is lower: less than 250 nM for the first, 250 to 1000 nM for the second.

Cc1cc(-c2n[nH]c3cc4[nH]c(=O)c([C@H](C)c5ccc(F)cc5)cc4cc23)ccn1 [Compound 288] and Cc1cc(-c2n[nH]c3cc4[nH]c(=O)c(C(C)c5ccc(F)cc5)cc4cc23)ccn1 (centres unmarked) [Compound 197] cannot be ordered by IC50: less than 250 nM for the first, less than 250 nM for the second.

Compared with Cc1cc(-c2n[nH]c3cc4[nH]c(=O)c(C(C)c5cccc(Cl)c5)cc4cc23)ccn1 (centres unmarked) [Compound 181], Cc1cc(-c2n[nH]c3cc4c(cc23)CC([C@H](C)c2ccccc2)C(=O)N4)ccn1 (some centres unmarked) [Compound 371] is higher in IC50: less than 250 nM for the first, 250 to 1000 nM for the second. The first is the more potent here.

Compound O=C1Nc2cc3[nH]nc(-c4ccnnc4)c3cc2CN1Cc1cccc(Cl)c1 [Compound 66] has an IC50 of 250 to 1000 nM.

Molecular target: ERK2 enzyme (Homo sapiens (Human), UniProt P28482)
Assay: Inhibition assay of ERK (Z'-LYTE kinase assay, Ser/Thr 3 peptide substrate)
Assay type: biochemical
Conditions: In vitro ERK2 enzyme, 100 μM ATP

ERK2 enzyme, sequence (P28482 whole entry): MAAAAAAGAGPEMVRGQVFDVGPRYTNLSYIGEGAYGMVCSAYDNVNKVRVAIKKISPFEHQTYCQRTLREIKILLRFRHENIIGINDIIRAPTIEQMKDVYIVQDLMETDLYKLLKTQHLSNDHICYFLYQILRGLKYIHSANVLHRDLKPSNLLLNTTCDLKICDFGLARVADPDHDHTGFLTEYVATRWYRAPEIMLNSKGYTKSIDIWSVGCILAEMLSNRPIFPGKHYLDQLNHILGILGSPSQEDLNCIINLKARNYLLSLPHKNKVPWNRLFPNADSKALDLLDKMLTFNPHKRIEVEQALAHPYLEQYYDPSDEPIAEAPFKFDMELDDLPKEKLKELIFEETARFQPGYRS

Cc1cc(-c2n[nH]c3cc4c(cc23)CN([C@@H]2CCCN(C(=O)c3cccc(Cl)c3)C2)C(=O)N4)ccn1 [Compound 152] and Cc1cc(-c2n[nH]c3cc4c(cc23)CN([C@@H]2CCCN(C(=O)c3ccccc3)C2)C(=O)N4)ccn1 [Compound 172] cannot be ordered by IC50: less than 50 nM for the first, less than 50 nM for the second.

Cc1cc(-c2n[nH]c3cc4[nH]c(=O)c(Cc5ccccc5)cc4cc23)ccn1 [Compound 6] and Cc1cc(-c2n[nH]c3cc4[nH]c(=O)c(C(C)c5cccc(Cl)c5)cc4cc23)ccn1 (centres unmarked) [Compound 181] fall in the same range of IC50: 50 to 250 nM for the first, 50 to 250 nM for the second.

Compared with Cc1cc(-c2n[nH]c3cc4[nH]c(=O)c(C(C)c5ccc(F)cc5)cc4cc23)ccn1 (centres unmarked) [Compound 197], Cc1cc(-c2n[nH]c3cc4c(cc23)CN([C@H](C)c2ccc(F)cc2)C(=O)N4)ccn1 [Compound 5] is higher in IC50: less than 50 nM for the first, 50 to 250 nM for the second. The first is the more potent here.

O=C1Nc2cc3[nH]nc(-c4ccnnc4)c3cc2CN1Cc1cccc(Cl)c1 [Compound 66] and N#Cc1cccc(CN2Cc3cc4c(-c5ccnnc5)n[nH]c4cc3NC2=O)c1 [Compound 128] cannot be ordered by IC50: less than 50 nM for the first, less than 50 nM for the second.

Cc1cc(-c2n[nH]c3cc4c(cc23)CN([C@@H]2CCCN(CC3CCC3)C2)C(=O)N4)ccn1 [Compound 137] and Cc1cc(-c2n[nH]c3cc4c(cc23)CN([C@@H]2CCCN(CCc3ccc(F)cc3)C2)C(=O)N4)ccn1 [Compound 167] fall in the same range of IC50: 50 to 250 nM for the first, 50 to 250 nM for the second.

Cc1cc(-c2n[nH]c3cc4c(cc23)CN(C(C)CC(C)C)C(=O)N4)ccn1 (centres unmarked) [Compound 53] showed an IC50 of less than 50 nM.

Same assay, conditions: In vitro, ERK2 enzyme 0.47 ng/μL, 100 μM ATP

Compared with O=C1Nc2cc3[nH]nc(NC4CCOCC4)c3cc2CN1[C@@H]1CN(CC(F)(F)F)C[C@H]1c1ccccc1 [Compound 361], Cc1cc(-c2n[nH]c3cc4c(cc23)CN([C@@H]2CN(CC(F)(F)F)C[C@H]2c2cccs2)C(=O)N4)ccn1 (mixture of isomers) [Compound 321] is lower in IC50: 50 to 250 nM for the first, less than 50 nM for the second.

Cc1cc(-c2n[nH]c3cc4[nH]c(=O)c([C@H](C)c5ccc(F)cc5)cc4cc23)ccn1 [Compound 288] and CC(c1ccccc1)c1cc2cc3c(-c4ccnc(N5CCN(C)CC5)c4)n[nH]c3cc2[nH]c1=O (centres unmarked) [Compound 318] cannot be ordered by IC50: less than 50 nM for the first, less than 50 nM for the second.

Compared with Cc1cc(-c2n[nH]c3cc4c(cc23)CC([C@H](C)c2ccccc2)C(=O)N4)ccn1 (some centres unmarked) [Compound 371], Cc1cc(-c2n[nH]c3cc4c(cc23)CN(Cc2ccccc2)C(=O)N4)ccn1 [Compound 372] is lower in IC50: 50 to 250 nM for the first, less than 50 nM for the second.

First: Cc1cc(-c2n[nH]c3cc4c(cc23)CN([C@@H]2CCCN(C3CCC3)C2)C(=O)N4)ccn1 [Compound 210]
Second: Cc1cc(-c2n[nH]c3cc4c(cc23)CN([C@@H]2CCCN(Cc3cccs3)C2)C(=O)N4)ccn1 [Compound 254]
The IC50 of the first is higher: 50 to 250 nM for the first, less than 50 nM for the second. The second is the more potent here.

Cn1cc(-c2n[nH]c3cc4c(cc23)CN([C@@H]2CCCN(Cc3ccccc3)C2)C(=O)N4)cn1 [Compound 285] and Cn1cc(-c2n[nH]c3cc4c(cc23)CN([C@@H]2CCN(CC(F)(F)F)C2)C(=O)N4)cn1 [Compound 259] cannot be ordered by IC50: less than 50 nM for the first, less than 50 nM for the second.

Cc1cc(-c2n[nH]c3cc4c(cc23)CN(CC2CCOCC2)C(=O)N4)cc(C)n1 [Compound 250] and Cc1cc(-c2n[nH]c3cc4c(cc23)CN([C@@H]2CN(C)C[C@H]2c2ccccc2)C(=O)N4)cc(C)n1 [Compound 308] cannot be ordered by IC50: less than 50 nM for the first, less than 50 nM for the second.

Cc1cc(-c2n[nH]c3cc4c(cc23)CN([C@H]2CN(C(C)C)C[C@@H]2c2ccccc2)C(=O)N4)ccn1 [Compound 296] and Cc1cc(-c2n[nH]c3cc4[nH]c(=O)c(C5CCCN(Cc6cccs6)C5)cc4cc23)ccn1 (centres unmarked) [Compound 378] fall in the same range of IC50: 50 to 250 nM for the first, 50 to 250 nM for the second.

Tested on: not given
Assay: not given
Conditions: control or reference compounds, 5 μM; cited from earlier work

In the case of CC(C)[N+](C)(CCOC(=O)C1c2ccccc2Oc2ccccc21)C(C)C [propantheline], the plasma stability is given as “intermediate plasma stability”.
For CCCOc1cc(N)ccc1C(=O)OCCN(CC)CC [propoxycaine], the plasma stability is listed as “low plasma stability”.

Tested on: H358 (Kras, G12C) cells
Assay: Tumor cell line proliferation assay (CellTiter Glo), H358
Conditions: Homo sapiens, NCI-H358, 96 h, read-out: H358 (Kras, G12C) Cell Proliferation IC50 (nM)
Experimental: (§1) The ability of one or more compounds of the invention to inhibit tumor cell line proliferation was determined according to standard procedures known in the art. For instance, an in vitro cellular proliferation assay was performed to measure the metabolic activity of live cells. […] The cells were incubated at 37° C. under 5% CO2 for two hours to allow for attachment to the plates. Compounds were first diluted in 1:3 dilutions in 100% DMSO at 250× the desired concentration, and then further diluted (1:50) in 10% DMEM growth medium. The diluted compounds were added to the cell plate (25 μL for a 5× dilution) and the cells are incubated with compounds (0.4% DMSO in 10% FBS DMEM) for 96 hours at 37° C. under 5% CO2. The cell control wells were added with vehicle only (0.4% DMSO in 10% FBS DMEM or in 10% FBS RPMI). Each concentration of the compounds was tested in duplicates. After 96 hours of the compound treatment, CellTiter Glo reagent (Promega) was added at a 1:5 dilution to each well of the cell plate and the cell plate was placed at room temperature for 30 minutes. The luminescence of the wells was determined using a Tecan plate reader.

Cc1cc(-c2n[nH]c3cc4[nH]c(=O)c(C(C)c5cccc(Cl)c5)cc4cc23)ccn1 (centres unmarked) [Compound 181] and Cc1cc(-c2n[nH]c3cc4[nH]c(=O)c(C(C)c5ccc(F)cc5)cc4cc23)ccn1 (centres unmarked) [Compound 197] cannot be ordered by IC50: less than 250 nM for the first, less than 250 nM for the second.

Tested on: A375 cells
Assay: Tumor cell line proliferation assay (CellTiter Glo), A375
Assay type: cell-based
Conditions: Homo sapiens, A-375, 96 h, read-out: A375 (V599E) Cell Proliferation IC50

Compared with Cc1cc(-c2n[nH]c3cc4[nH]c(=O)c(Cc5ccccc5)cc4cc23)ccn1 [Compound 6], Cc1cc(-c2n[nH]c3cc4[nH]c(=O)c(C(C)c5ccc(F)cc5)cc4cc23)ccn1 (centres unmarked) [Compound 197] is lower in IC50: 250 to 1000 nM for the first, less than 250 nM for the second.

Same assay, conditions: Homo sapiens, A-375, 96 hours, read-out: A375 (V599E) Cell Proliferation IC50

For Cc1cc(-c2n[nH]c3cc4[nH]c(=O)c(C(C)c5cccc(Cl)c5)cc4cc23)ccn1 (centres unmarked) [Compound 181], the IC50 was less than 250 nM.

Tested on: not given
Assay: not given
Conditions: PBS pH 7.4, 37° C., over the course of 24 hours; cited from earlier work

For O=C(O)CCCc1ccc(N(CCCl)CCCl)cc1 [chlorambucil], the chemical stability is listed as “largely hydrolyzed”.

Tested on: WM-266-4 cells
Assay: Tumor cell line proliferation assay (CellTiter Glo), WM-266-4
Conditions: Homo sapiens, WM 266-4, 96 h, read-out: WM-266-4 (V599D) Cell Proliferation IC50 (nM)
Experimental: as §1

Cc1cc(-c2n[nH]c3cc4[nH]c(=O)c(Cc5ccccc5)cc4cc23)ccn1 [Compound 6] gave an IC50 of 250 to 1000 nM.
